Reference: patent US20020143059A1, “Skin care product containing retinoids, retinoid booster and phytoestrogens in a dual compartment package” (priority 2000, published 2002)
Values belong to the compound of their own block, whether it stands above or below them.

What was measured:
CRABPII = molecular target: T1, CRABPII (Homo sapiens, UniProt P29373); assay: CRABPII antagonist radioactive binding assay; details: competition with radioactive all trans retinoic acid, ligand in excess
T1 construct: made in house; host or cells: E. coli BLR(DE3)pLysS
T1 sequence (P29373 1-138): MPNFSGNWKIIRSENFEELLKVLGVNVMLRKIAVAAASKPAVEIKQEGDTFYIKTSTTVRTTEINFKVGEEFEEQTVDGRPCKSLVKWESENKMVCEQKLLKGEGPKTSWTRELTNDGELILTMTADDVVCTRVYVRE
Description: 2.6 Assay for CRABPII antagonists (To identify B4)
2.6.1 Synthesis of CRABPII
The gene CRABPII was cloned in pET 29a-c(+) plasmid (Novagen). The cloned gene was under control of strong bacteriophage T7 transcription and translation signals. The source of T7 polymerase was provided by the host cell E.coli BLR(DE3)pLysS (Novagen). The latter has a chromosomal copy of T7 polymerase under lacUV5 control, induced by the presence of IPTG. The plasmid was transferred into E. coli BLR(DE3)pLysS cells by transformation according to the manufacturer protocol (Novagen).
An overnight culture of the transformed cells was diluted 1:100 into 2xYT containing 50 μg/mL kanamycin and 25 μg/mL chloramphenicol. The cells grew while shaking at 37° C. until the OD at 600 nm reached 0.6-0.8. Then IPTG was added to a final concentration of 1 mM and the culture was incubated for an additional two hours. The cells were harvested by centrifugation at 5000 g for 10 minutes at room temperature. The pellet was stored at −20° C. […]
The supernatant from step a. was loaded onto a 2.5×100 cm column of sephacryl S-300 (Pharmacia) at room temperature. […] Collected 2-mL fractions were checked for ultraviolet absorbance at 280 nm. […]
For the competitive assay, another ligand in excess (6670:1, 670:1 or 70:1) was added to the mix. […] The radioactivity of the filtrate was measured by scintillation counter.

Retinal Reductase = assay: Assay for Retinal Reductase Activity, liver microsomes; format: biochemical, rat; details: test compound final 100 μM (method)
CRABP-II = CRABP-II expression in adult fibroblasts (dot blot); format: cell-based, human; details: for CRABP-II production / % as Control: 1 μM phytoestrogen alone; for % as Control: control as 100%
[1] = Retinol stability in the presence of phytoestrogenic flavonoids (OD 360 nm); format: physicochemical
Procedure: Retinol was dissolved as a 10% solution in aqueous ethanol (1:1 water:ethanol). This solution was diluted to 0.001% approximately 30 μM). This solution gave an OD of about 0.35 absorption unit at 360 nm in a 96 well plate spectrophotometer.
Aqueous ethanolic stock solutions of the genistein, daidzein were prepared as 0.1%, 0.01% or 0.001%. To 200 μl of 0.001% retinol solution in a 96 well plate was added 20 μl of the flavonoid (i.e. 1-10 dilution) giving a final flavonoid concentration of 0.01, 0.001 and 0.0001%. The plates were mixed and an initial OD reading was taken at 360 nm. The plates were incubated at room temperature in the dark for up to 2 days and subsequent readings were taken at 8, 24 and 48 hours. The OD readings at these time points were normalized to the 0 time point reading. The retinol stability was expressed as % of retinol (OD reading) at 0 time. The data is shown in example 5.
Example 5: The following tables show the effect of genistein and daidzein on destabilizing retinol. The experiment was done as described in methods section. The OD readings from duplicate measurements were averaged and given here.

[2] = Retinol stability in the presence of boosters (OD 360 nm); format: physicochemical; details: booster approximately 0.1%, 60 hours at room temperature in the dark, approx. 50% aqueous ethanol
Procedure: Retinol (50% in tween 80) was dissolved in approximately 50% aqueous ethanol to provide a solution giving an OD at 360 nm of approximately 0.6 when measured in a 200 μl volume in a 96 well plate using a standard 96 well spectrophotometer.
Booster molecules were added at approximately 0.1% concentration and the OD 360 measured as above immediately and after 60 hours at room temperature in the dark. A correction was applied to the OD after 60 hours (divide by 0.85) to account for increased concentration of the retinol due to evaporation of solvent from the plate.

TGase I = assay: Transglutaminase (TGase I ELISA) assay in cultured keratinocytes; format: cell-based; details: for % Inhibition Overall TG (−ROH/RE): added effect of booster+retinol induced TGase inhibition over retinol alone
LRAT = molecular target: T2, LRAT (Bos taurus, UniProt Q9BGL2); assay: Assay for LRAT activity, RPE microsomes; format: biochemical, bovine
T2 construct: followed by approximately 15 μg of RPE microsomal protein; tissue W. L. Lawson Co., Lincoln, Nebr; host or cells: bovine retinal pigment epithelium microsomes
T2 sequence (Q9BGL2 1-230): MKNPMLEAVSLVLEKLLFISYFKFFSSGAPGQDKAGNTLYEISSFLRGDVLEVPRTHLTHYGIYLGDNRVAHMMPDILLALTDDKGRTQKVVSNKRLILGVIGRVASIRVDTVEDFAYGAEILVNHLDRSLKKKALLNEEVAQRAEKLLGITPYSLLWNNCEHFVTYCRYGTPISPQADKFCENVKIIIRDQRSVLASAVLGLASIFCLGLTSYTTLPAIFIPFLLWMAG

Retinol Dehydrogenase = assay: Assay for Retinol Dehydrogenase Activity, liver microsomes; format: biochemical, rat; details: test compound final 100 μM (method)
Procedure: 2.2 Isolation of rat liver microsomes (modified from R. Martini & M. Murray, “Participation of P450 3A Enzymes in Rat Hepatic Microsomal Renitoic Acid 4-Hydroxylation”, Archives Biochem. Biophys. 303, 57-66 (1993)).
The resulting homogenate was successively centrifuged for 30 min. at 10,000 g, 30 min. at 20,000 g, and 15 min. at 30,000 g, and the resulting supernatant was ultracentrifuged for 80 min. at 105,000 g. […] Protein concentrations were determined as described above.
2.4 Assay for Retinol Dehydrogenase Activity (To identify B2)
The following stock solutions were prepared:
50 mM KH2PO4, pH 7.4 buffer, sterile filtered.
10 mM all trans Retinol (Sigma R7632) in DMSO.
200 mM Nicotinamide adenine dinucleotide phosphate, sodium salt (NADP) (Sigma N0505) in sterile water.
40 mM test compound in appropriate solvent (water, buffer, ethanol, chloroform or DMSO).
1:10 dilution of rat liver Microsomes in 50 mM KH2PO4, pH 7.4 buffer (4 ug/ul).
In a two-dram glass vial with screw cap, add the following in order:
Buffer to give a final volume of 400 μl […]
Aliquots of 60 μL were injected immediately and analyzed for retinoid content.
The chromatography instrumentation consisted of a Waters 600 gradient controller/pump, a Waters 996 Photodiode Array detector and a Waters 474 Scanning Fluorescence detector. […] The eluate was monitored for absorbance at 325 nm and fluorescence at 325 ex/480 em. […]

Compound: CCCCCCC(O)CCCCCCCCCCC(=O)O (stereo not drawn) [12-Hydroxystearic Acid]
% Inhibition CRABPII (CRABPII): >50%

Compound: CC1(C)[C@@H](OC(=O)CCC(=O)O)CC[C@]2(C)[C@H]3C(=O)C=C4[C@@H]5C[C@@](C)(C(=O)O)CC[C@]5(C)CC[C@@]4(C)[C@]3(C)CC[C@@H]12 [Carbenoxolone, reference compound]
% Inhibition Retinal Reductase (Retinal Reductase): 26% +/− 2

Compound: O=c1c(-c2ccc(O)cc2)coc2cc(O)ccc12 [Daidzein]
CRABP-II production (CRABP-II): 1.49+/−0.66 | % as Control (CRABP-II): 513+/−227% | Retinol stability, % of retinol (OD reading) at 0 time ([1]; 8 h, 0.0001 %): 82% | Retinol stability, % of retinol (OD reading) at 0 time ([1]; 24 h, 0.0001 %): 78% | Retinol stability, % of retinol (OD reading) at 0 time ([1]; 48 h, 0.0001 %): 76%

Compound: CN1CCN(C)C1=O [Dimethyl Imidazolidinone]
FOLD INCREASE IN RATE OF RETINOL LOSS [2]: 1.4 fold | % Inhibition Overall TG (−ROH/RE) (TGase I): 22%

Compound: O=c1c(-c2ccc(O)cc2)coc2cc(O)cc(O)c12 [Genistein]
stimulation of CRABP-II (CRABP-II; 1 μM alone): stimulated CRABP-II significantly | CRABP-II production (CRABP-II): 1.9+/−0.71 | % as Control (CRABP-II): 655+/−247% | effect of flavonoid on instability of retinol ([1]; up to 48 hours): marked increases in the instability of retinol

Compound: CC1(C)[C@@H](O)CC[C@]2(C)[C@H]3C(=O)C=C4[C@@H]5C[C@@](C)(C(=O)O)CC[C@]5(C)CC[C@@]4(C)[C@]3(C)CC[C@@H]12 [Glycyrretinic Acid]
FOLD INCREASE IN RATE OF RETINOL LOSS [2]: 1.6 fold | IC50 (TGase I; Keratinocyte, booster in combination with a constant retinol concentration of 10^−7M, read-out: Overall TG (IC 50)): 8.64 µM

Compound: CCCCC/C=C\C/C=C\CCCCCCCC(=O)O [Linoleic Acid]
FOLD INCREASE IN RATE OF RETINOL LOSS [2]: 3.4 fold | % Inhibition Retinal Reductase (Retinal Reductase): 62% +/− 2

The next lines start with the values.

% Inhibition LRAT (10 μm) (LRAT; 10 μm compound): 11% +/− 9 | % Inhibition LRAT (100 μm) (LRAT; 100 μm compound): 51% +/− 15 | FOLD INCREASE IN RATE OF RETINOL LOSS [2]: 3.0 fold | % Inhibition Overall TG (−ROH/RE) (TGase I): 59%
Compound: CCCCC/C=C\C/C=C\CCCCCCCC(=O)N(CCO)CCO [Linoleoyl Diethanolamide]

% Inhibition Retinal Reductase (Retinal Reductase): 26%
Compound: CCCCCCCCCCCCCC(=O)O [Myristic Acid]

retinol degraded ([1]; 8 h, 0.001 %): 8% | Retinol stability, % of retinol (OD reading) at 0 time ([1]; 24 h, 0.001 %): 86% | retinol degraded ([1]; 24 h, 0.001 %): 14% | Retinol stability, % of retinol (OD reading) at 0 time ([1]; 48 h, 0.001 %): 81% | retinol degraded ([1]; 48 h, 0.001 %): 19%
Compound: CC1=C(/C=C/C(C)=C/C=C/C(C)=C/CO)C(C)(C)CCC1 [Retinol]

% Inhibition Retinal Reductase (Retinal Reductase): 6%
Compound: COc1cc(C=O)ccc1O [Vanillin]

% Increase Retinol Dehydrogenase (Retinol Dehydrogenase): 21% increase
Compound: Phosphatidyl Choline

% Increase Retinol Dehydrogenase (Retinol Dehydrogenase): 26% increase
Compound: Sphingomyelin
